Earlier results on 3 compounds are cited in patent publication US9381220B2, “Sceletium extract and uses thereof” (H. L. Hall & Sons Limited, priority 2009, dated 2016).

Structures are written as SMILES.

For data set [1] the following is noted: fermentation, exposure to light, exposure to heat, aqueous medium.
Another data set concerns the target 5-HT uptake (Homo sapiens, UniProt P31645). As to conditions: as described in U.S. Pat. No. 6,288,104.
The test system of another data set is PDE4. As to conditions: Napoletano et al. 2001.

Sequence of 5-HT uptake (P31645 whole entry): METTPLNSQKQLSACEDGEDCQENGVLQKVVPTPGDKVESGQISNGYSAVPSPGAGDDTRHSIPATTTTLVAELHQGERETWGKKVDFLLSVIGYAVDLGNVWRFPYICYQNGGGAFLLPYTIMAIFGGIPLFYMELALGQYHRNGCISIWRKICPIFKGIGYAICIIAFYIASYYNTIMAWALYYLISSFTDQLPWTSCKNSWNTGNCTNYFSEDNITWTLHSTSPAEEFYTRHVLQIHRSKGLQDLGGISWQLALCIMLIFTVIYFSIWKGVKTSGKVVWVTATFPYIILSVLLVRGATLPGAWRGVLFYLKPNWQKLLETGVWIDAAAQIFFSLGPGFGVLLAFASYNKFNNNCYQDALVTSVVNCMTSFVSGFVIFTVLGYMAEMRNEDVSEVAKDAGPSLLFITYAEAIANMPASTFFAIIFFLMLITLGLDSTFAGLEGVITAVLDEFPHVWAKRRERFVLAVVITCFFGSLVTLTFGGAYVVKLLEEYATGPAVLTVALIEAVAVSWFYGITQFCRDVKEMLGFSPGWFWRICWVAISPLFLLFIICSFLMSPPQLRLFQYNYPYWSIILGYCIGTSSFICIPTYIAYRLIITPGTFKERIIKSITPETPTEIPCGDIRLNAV

`COc1ccc([C@@]23CCC(=O)C[C@@H]2N(C)CC3)cc1OC` [mesembrine]: the stability result in data set [1] is “unstable”.
Turning to `COc1ccc(C23C=CC(O)CC2N(C)CC3)cc1OC` (stereo not drawn) [mesembrenol], at 5-HT uptake, the “5-HT uptake inhibitory activity” value is reported as “potent 5-HT uptake inhibitory activity”.
Take `COc1ccc(C23CCC(=O)CC2N(C)CC3)cc1OC.Cl` (stereo not drawn) [Mesembrine hydrochloride]: the PDE4 inhibition entry in the data set on PDE4 is listed as “weak PDE4 inhibitor”.
